MIC data for 48 molecules are collected here from ChEMBL document CHEMBL1122862, “Synthesis and antibacterial activity of 2,2'-dithiobis(benzamide) derivatives against Mycobacterium species” (1985).

Structures are written as SMILES. In brackets after ≈: the same amount, converted by molar mass. A value given as a limit tells only on which side of the number the result lay.

Holding throughout (format): functional
Assay [1] deals with Mycobacterium tuberculosis. Nature of the assay: Tested for antibacterial activity against Mycobacterium tuberculosis H37Rv isonicotinic acid hydrazide-resistant strain.
Assay [2] concerns Mycobacterium tuberculosis. The assay can be described thus: Tested for antibacterial activity against Mycobacterium tuberculosis H37Rv kanamycin resistant strain.
The test system of assay [3] is Mycobacterium tuberculosis. The assay can be described thus: Tested for antibacterial activity against Mycobacterium tuberculosis H37Rv streptomycin resistant strain.

Broadly, the MIC is the lowest concentration that inhibits growth of the organism. `CCn1c2ccccc2c2cc(NC(=O)c3ccccc3SSc3ccccc3C(=O)Nc3ccc4c(c3)c3ccccc3n4CC)ccc21`: the MIC in assay [1] came to 1.56 µg/mL (≈ 2.26 µM); in assay [2] it was 3.13 µg/mL (≈ 4.53 µM); in assay [3], 1.56 µg/mL (≈ 2.26 µM).

With `CCCCc1ccc(NC(=O)c2ccccc2SSc2ccccc2C(=O)Nc2ccc(CCCC)cc2)cc1`, the MIC amounted to 0.78 µg/mL (≈ 1.37 µM) in assay [1], 1.56 µg/mL (≈ 2.74 µM) in assay [2] and 1.56 µg/mL (≈ 2.74 µM) in assay [3].

`CCNC(=O)OCCNC(=O)c1ccccc1SSc1ccccc1C(=O)NCCOC(=O)NCC`: the MIC in assay [1], in assay [2] and in assay [3] was 25 µg/mL (≈ 46.8 µM) in each case.

Take `CCCC(=O)OCCCNC(=O)c1ccccc1SSc1ccccc1C(=O)NCCCOC(=O)CCC`: the MIC was determined as 3.13 µg/mL (≈ 5.58 µM) in assay [1], 6.25 µg/mL (≈ 11.1 µM) in assay [2] and 6.25 µg/mL (≈ 11.1 µM) in assay [3].

`O=C(NCC(O)c1ccc(O)c(O)c1)c1ccccc1SSc1ccccc1C(=O)NCC(O)c1ccc(O)c(O)c1` (centres undefined): the MIC in assay [1] is 100 µg/mL (≈ 164 µM); in assay [2], 100 µg/mL (≈ 164 µM); in assay [3], over 100 µg/mL.

`O=c1c2ccccc2sn1CO`: the minimum inhibitory concentration (MIC) is 6.25 µg/mL (≈ 34.5 µM) in assay [1], 12.5 µg/mL (≈ 69 µM) in assay [2] and 12.5 µg/mL (≈ 69 µM) in assay [3].

Consider `O=C(c1ccccc1SSc1ccccc1C(=O)n1nnc2ccccc21)n1nnc2ccccc21`, for which the MIC in assay [1], in assay [2] and in assay [3] was over 100 µg/mL each time.

`CC(O)Cn1sc2ccccc2c1=O` (centres undefined): the MIC in assay [1], in assay [2] and in assay [3] was 12.5 µg/mL (≈ 59.7 µM) in each case.

As for `O=C(NCc1ccco1)c1ccccc1SSc1ccccc1C(=O)NCc1ccco1`, the MIC in assay [1], in assay [2] and in assay [3] was 12.5 µg/mL (≈ 26.9 µM) throughout.

In the case of `CCCCCCCCCCCC(=O)OCCNC(=O)c1ccccc1SSc1ccccc1C(=O)NCCOC(=O)CCCCCCCCCCC`, the MIC in assay [1], in assay [2] and in assay [3] was 3.13 µg/mL (≈ 4.13 µM) in each case.

In the case of `CO[C@H]1/C=C/O[C@@]2(C)Oc3c(C)c(O)c4c(O)c(c(/C=N/N5CCN(C)CC5)c(O)c4c3C2=O)NC(=O)/C(C)=C\C=C\[C@H](C)[C@H](O)[C@@H](C)[C@@H](O)[C@@H](C)[C@H](OC(C)=O)[C@@H]1C` [RIFAMPIN], the MIC in assay [1] amounted to 0.025 µg/mL (≈ 0.0304 µM); in assay [2], 0.05 µg/mL (≈ 0.0608 µM); in assay [3] it was 0.025 µg/mL (≈ 0.0304 µM).

On to `CCC(O)CNC(=O)c1ccccc1SSc1ccccc1C(=O)NCC(O)CC` (centres undefined), for which the MIC in assay [1], in assay [2] and in assay [3] was 12.5 µg/mL (≈ 27.9 µM) each time.

In the case of `CCCCCCCCCC(=O)OCCCNC(=O)c1ccccc1SSc1ccccc1C(=O)NCCCOC(=O)CCCCCCCCC`, the MIC in assay [1] turned out to be 0.39 µg/mL (≈ 0.535 µM); in assay [2] it was 0.39 µg/mL (≈ 0.535 µM); in assay [3], 0.78 µg/mL (≈ 1.07 µM).

For the molecule `CCC(CO)NC(=O)c1ccccc1SSc1ccccc1C(=O)NC(CC)CO` (centres undefined), the MIC in assay [1], in assay [2] and in assay [3] was 12.5 µg/mL (≈ 27.9 µM) throughout.

As for `CCOc1ccc2nc(NC(=O)c3ccccc3SSc3ccccc3C(=O)Nc3nc4ccc(OCC)cc4s3)sc2c1`, the MIC in assay [1], in assay [2] and in assay [3] was over 100 µg/mL each time.

For `O=C(Nc1c([N+](=O)[O-])ccc2ccccc12)c1ccccc1SSc1ccccc1C(=O)Nc1c([N+](=O)[O-])ccc2ccccc12`, the MIC in assay [1], in assay [2] and in assay [3] was 50 µg/mL (≈ 77.3 µM) throughout.

Consider `O=C(Nc1cccc2cccnc12)c1ccccc1SSc1ccccc1C(=O)Nc1cccc2cccnc12`, for which the minimal inhibitory concentration (MIC) in assay [1] was determined as 12.5 µg/mL (≈ 22.4 µM); in assay [2], 50 µg/mL (≈ 89.5 µM); in assay [3], 50 µg/mL (≈ 89.5 µM).

`O=C(Nc1ccc(S(=O)(=O)Nc2nc3ccccc3s2)cc1)c1ccccc1SSc1ccccc1C(=O)Nc1ccc(S(=O)(=O)Nc2nc3ccccc3s2)cc1`: the MIC in assay [1] stood at 100 µg/mL (≈ 113 µM); in assay [2], 50 µg/mL (≈ 56.7 µM); in assay [3], 100 µg/mL (≈ 113 µM).

As for `O=C(O)Cc1ccc(NC(=O)c2ccccc2SSc2ccccc2C(=O)Nc2ccc(CC(=O)O)cc2)cc1`, the MIC in assay [1], in assay [2] and in assay [3] was 100 µg/mL (≈ 175 µM) throughout.

As to `CC(C)(CO)NC(=O)c1ccccc1SSc1ccccc1C(=O)NC(C)(C)CO`, the minimum inhibitory concentration (MIC) is 6.25 µg/mL (≈ 13.9 µM) in assay [1], 12.5 µg/mL (≈ 27.9 µM) in assay [2] and 12.5 µg/mL (≈ 27.9 µM) in assay [3].

As for `CC(=O)OCCCNC(=O)c1ccccc1SSc1ccccc1C(=O)NCCCOC(C)=O`, the MIC was 6.25 µg/mL (≈ 12.4 µM) in assay [1], 12.5 µg/mL (≈ 24.8 µM) in assay [2] and 12.5 µg/mL (≈ 24.8 µM) in assay [3].

Turning to `CCCCC(CC)CNC(=O)c1ccccc1SSc1ccccc1C(=O)NCC(CC)CCCC` (centres undefined), the MIC in assay [1], in assay [2] and in assay [3] was 1.56 µg/mL (≈ 2.95 µM) in each case.

As to `CCCCCC(=O)OCCCNC(=O)c1ccccc1SSc1ccccc1C(=O)NCCCOC(=O)CCCCC`, the MIC in assay [1], in assay [2] and in assay [3] was 3.13 µg/mL (≈ 5.07 µM) throughout.

Turning to `O=C(Nc1ccc(Br)c2ccccc12)c1ccccc1SSc1ccccc1C(=O)Nc1ccc(Br)c2ccccc12`, the minimal inhibitory concentration (MIC) in assay [1], in assay [2] and in assay [3] was 12.5 µg/mL (≈ 17.5 µM) throughout.

As for `CCCCCCC(=O)OCCCNC(=O)c1ccccc1SSc1ccccc1C(=O)NCCCOC(=O)CCCCCC`, the MIC in assay [1], in assay [2] and in assay [3] was 1.56 µg/mL (≈ 2.42 µM) throughout.

`CN1CCCN(C(=O)c2ccccc2SSc2ccccc2C(=O)N2CCCN(C)CC2)CC1`: the minimum inhibitory concentration (MIC) in assay [1], in assay [2] and in assay [3] was over 100 µg/mL each time.

Take `CCc1cc(CC)cc(NC(=O)c2ccccc2SSc2ccccc2C(=O)Nc2cc(CC)cc(CC)c2)c1`: the MIC in assay [1], in assay [2] and in assay [3] was over 100 µg/mL each time.

Regarding `CC[C@@H](CO)NCCN[C@@H](CC)CO` [ETHAMBUTOL], the minimum inhibitory concentration (MIC) in assay [1] worked out at 0.78 µg/mL (≈ 3.82 µM); in assay [2], 1.56 µg/mL (≈ 7.64 µM); in assay [3], 0.78 µg/mL (≈ 3.82 µM).

With `CCCCCCCCCCCC(=O)OCCCNC(=O)c1ccccc1SSc1ccccc1C(=O)NCCCOC(=O)CCCCCCCCCCC`, the minimal inhibitory concentration (MIC) in assay [1], in assay [2] and in assay [3] was 0.78 µg/mL (≈ 0.993 µM) each time.

Consider `CCOC(=O)CNC(=O)c1ccccc1SSc1ccccc1C(=O)NCC(=O)OCC`, for which the MIC in assay [1] turned out to be 12.5 µg/mL (≈ 26.2 µM); in assay [2] it was 25 µg/mL (≈ 52.5 µM); in assay [3], 12.5 µg/mL (≈ 26.2 µM).

Take `CN[C@@H]1[C@H](O[C@H]2[C@H](O[C@H]3[C@H](O)[C@@H](O)[C@H](N=C(N)N)[C@@H](O)[C@@H]3N=C(N)N)O[C@@H](C)[C@]2(O)C=O)O[C@@H](CO)[C@H](O[C@@H]2O[C@H](CO)[C@@H](O)[C@H](O)[C@@H]2O)[C@H]1O`: the values for the MIC in assay [1], in assay [2] and in assay [3] were 0.78 µg/mL (≈ 1.05 µM), 3.13 µg/mL (≈ 4.21 µM) and over 100 µg/mL, respectively.

`O=C(c1ccccc1SSc1ccccc1C(=O)N1C(=O)c2ccccc2C1=O)N1C(=O)c2ccccc2C1=O`: the minimal inhibitory concentration (MIC) in assay [1], in assay [2] and in assay [3] was over 100 µg/mL each time.

Turning to `CC(O)CNC(=O)c1ccc(SSc2ccc(C(=O)NCC(C)O)cc2)cc1` (centres undefined), the MIC in assay [1], in assay [2] and in assay [3] was over 100 µg/mL each time.

As to `O=C(Nc1cccc2ccc(O)cc12)c1ccccc1SSc1ccccc1C(=O)Nc1cccc2ccc(O)cc12`, the MIC in assay [1] worked out at 12.5 µg/mL (≈ 21.2 µM); in assay [2], 50 µg/mL (≈ 84.9 µM); in assay [3], 50 µg/mL (≈ 84.9 µM).

As to `O=C1c2ccccc2S(=O)(=O)N1CO`, the MIC is over 100 µg/mL in assay [1], over 100 µg/mL in assay [2] and 100 µg/mL (≈ 469 µM) in assay [3].

As for `CCCCCCCCCCNC(=O)c1ccccc1SSc1ccccc1C(=O)NCCCCCCCCCC`, the MIC came to 3.13 µg/mL (≈ 5.35 µM) in assay [1], 6.25 µg/mL (≈ 10.7 µM) in assay [2] and 3.13 µg/mL (≈ 5.35 µM) in assay [3].

For `CCCCCCCCCCCCCCCCCCCC(=O)OCCCNC(=O)c1ccccc1SSc1ccccc1C(=O)NCCCOC(=O)CCCCCCCCCCCCCCCCCCC`, the minimal inhibitory concentration (MIC) in assay [1], in assay [2] and in assay [3] was over 100 µg/mL in each case.

With `CCCCCCCC(=O)OCCCNC(=O)c1ccccc1SSc1ccccc1C(=O)NCCCOC(=O)CCCCCCC`, the MIC amounted to 0.39 µg/mL (≈ 0.58 µM) in assay [1], 0.39 µg/mL (≈ 0.58 µM) in assay [2] and 0.78 µg/mL (≈ 1.16 µM) in assay [3].

In the case of `O=C(NCc1cccc2ccccc12)c1ccccc1SSc1ccccc1C(=O)NCc1cccc2ccccc12`, the MIC in assay [1], in assay [2] and in assay [3] was over 100 µg/mL in each case.

Turning to `CCOC(=O)c1ccc(NC(=O)c2ccccc2SSc2ccccc2C(=O)Nc2ccc(C(=O)OCC)cc2)cc1`, the minimum inhibitory concentration (MIC) in assay [1] was 3.13 µg/mL (≈ 5.21 µM); in assay [2], 6.25 µg/mL (≈ 10.4 µM); in assay [3] it was 3.13 µg/mL (≈ 5.21 µM).

Take `O=C(Nc1cc2ccccc2cc1O)c1ccccc1SSc1ccccc1C(=O)Nc1cc2ccccc2cc1O`: the MIC worked out at 12.5 µg/mL (≈ 21.2 µM) in assay [1], 6.25 µg/mL (≈ 10.6 µM) in assay [2] and 12.5 µg/mL (≈ 21.2 µM) in assay [3].

Turning to `NC[C@H]1O[C@H](O[C@H]2[C@H](O)[C@@H](O[C@H]3O[C@H](CO)[C@@H](O)[C@H](N)[C@H]3O)[C@H](N)C[C@@H]2N)[C@H](O)[C@@H](O)[C@@H]1O` [KANAMYCIN], the MIC is 6.25 µg/mL (≈ 12.9 µM) in assay [1], over 100 µg/mL in assay [2] and 6.25 µg/mL (≈ 12.9 µM) in assay [3].

As to `O=c1c2ccccc2sn1CCO`, the MIC in assay [1], in assay [2] and in assay [3] was 12.5 µg/mL (≈ 64 µM) in each case.

For the molecule `O=C(Nc1cccc(C(F)(F)F)c1)c1ccccc1SSc1ccccc1C(=O)Nc1cccc(C(F)(F)F)c1`, the MIC in assay [1] is 3.13 µg/mL (≈ 5.28 µM); in assay [2], 6.25 µg/mL (≈ 10.5 µM); in assay [3], 3.13 µg/mL (≈ 5.28 µM).

Regarding `NNC(=O)c1ccncc1` [ISONIAZID], the MIC in assay [1] stood at 100 µg/mL (≈ 729 µM); in assay [2], 0.05 µg/mL (≈ 0.365 µM); in assay [3], 0.05 µg/mL (≈ 0.365 µM).

In the case of `NC(=O)c1ccccc1SSc1ccccc1C(N)=O`, the MIC in assay [1], in assay [2] and in assay [3] was 6.25 µg/mL (≈ 20.5 µM) each time.

With `O=C(Nc1ccc2ccccc2c1)c1ccccc1SSc1ccccc1C(=O)Nc1ccc2ccccc2c1`, the minimal inhibitory concentration (MIC) in assay [1], in assay [2] and in assay [3] was 1.56 µg/mL (≈ 2.8 µM) in each case.

For the molecule `O=C(Nc1ccc(Cl)c2ccccc12)c1ccccc1SSc1ccccc1C(=O)Nc1ccc(Cl)c2ccccc12`, the minimum inhibitory concentration (MIC) in assay [1], in assay [2] and in assay [3] was 12.5 µg/mL (≈ 20 µM) throughout.
